Experimental data published in patent US12679832B2, “Compounds and their uses as CD38 inhibitors” (Nanjing Immunophage Biotech Co., Ltd., priority 2021, dated 2026).
Counter-ions that a name gives are not always drawn.

Target: T1, hCD38 Enzyme (Homo sapiens, UniProt P28907)
T1 construct: purchased Sino Biological Inc 10818-H08H
T1 sequence (P28907 43-300 limits assumed): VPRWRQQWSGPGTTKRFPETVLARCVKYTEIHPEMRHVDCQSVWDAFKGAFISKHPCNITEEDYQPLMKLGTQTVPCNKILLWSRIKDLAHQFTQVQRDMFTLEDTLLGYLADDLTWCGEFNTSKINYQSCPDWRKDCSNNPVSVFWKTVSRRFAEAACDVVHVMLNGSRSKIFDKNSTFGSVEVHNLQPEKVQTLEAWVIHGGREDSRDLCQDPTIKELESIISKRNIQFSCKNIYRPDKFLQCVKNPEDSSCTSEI
Assay: CD38 hydrolase enzymatic assay
Type: biochemical
Details: rhCD38, ε-NAD substrate, 25° C., point reading time 20 mins; read-out: hCD38 Enzyme inhibition IC50
Procedure: Also, a blank sample was prepared with 50 μl of sucrose buffer and no test compounds.
The dynamic reading was performed at 25° C. with excitation light of 300 nm and emission light of 410 nm on the enzyme marker by contacting the above-prepared rhCD38 enzyme working fluid and the above-prepared solutions of the test compounds disclosed herein or the solution of the control. The readings were recorded for a total of 1 hour, and the data were analyzed with the point reading time of 20 mins.
Fluorescence was recorded by a microplate reader. Individual excel files containing fluorescence data were exported and the results were plotted against various drug concentrations and analyzed in GraphPad Prism 7.0 for concentration curve generation.

IC50 | Compound
> 10000 nM | CO[C@H]1CC[C@H](NC(=O)c2ccnc(-n3ccnc3C(F)(F)F)n2)CC1 [compound 154, N-((1r,4r)-4-methoxycyclohexyl)-2-(2-(trifluoromethyl)-1H-imidazol-1-yl) pyrimidine-4-carboxamide]
49 nM | COCCO[C@H]1CC[C@H](NC(=O)c2cc(C(F)(F)F)nc(-n3ccnc3)n2)CC1 [compound 157, 2-(1H-imidazol-1-yl)-N-((1r,4r)-4-(2-methoxyethoxy)cyclohexyl)-6-(trifluoromethyl) pyrimidine-4-carboxamide]
37 nM | C[C@H]1CC[C@H](NC(=O)c2cc(C(F)(F)F)cc(-n3ccnc3)n2)CC1 [compound 158, 6-(1H-imidazol-1-yl)-N-((1r,4r)-4-methylcyclohexyl)-4-(trifluoromethyl) picolinamide]
34 nM | O=C(Nc1cccc(F)c1)c1nc(-n2ccnc2)ccc1C(F)(F)F [compound 159, N-(3-fluorophenyl)-6-(1H-imidazol-1-yl)-3-(trifluoromethyl) picolinamide]
317 nM | O=C(Nc1cccc(F)c1)c1ccc(C(F)(F)F)c(-n2ccnc2)n1 [compound 160, N-(3-fluorophenyl)-6-(1H-imidazol-1-yl)-5-(trifluoromethyl) picolinamide]
831 nM | CO[C@H]1CC[C@H](NC(=O)c2nc(-n3ccnc3)ncc2C(F)(F)F)CC1 [compound 161, 2-(1H-imidazol-1-yl)-N-((1r,4r)-4-methoxycyclohexyl)-5-(trifluoromethyl) pyrimidine-4-carboxamide]
> 10000 nM | O=C(NC1CCNCC1)c1cc(C(F)(F)F)nc(-n2ccnc2)n1 [compound 162, 2-(1H-imidazol-1-yl)-N-(piperidin-4-yl)-6-(trifluoromethyl) pyrimidine-4-carboxamide hydrochloride]
92 nM | O=C(NC1CCOCC1)c1cc(C(F)(F)F)nc(-n2ccnc2)n1 [compound 163, 2-(1H-imidazol-1-yl)-N-(tetrahydro-2H-pyran-4-yl)-6-(trifluoromethyl) pyrimidine-4-carboxamide]
4 nM | N#Cc1ccc(NC(=O)c2cc(C(F)(F)F)nc(-n3ccnc3)n2)cn1 [compound 164, N-(6-cyanopyridin-3-yl)-2-(1H-imidazol-1-yl)-6-(trifluoromethyl) pyrimidine-4-carboxamide]
3 nM | N#Cc1ccc(NC(=O)c2cc(C(F)(F)F)nc(-n3ccnc3)n2)cc1 [compound 165, N-(4-cyanophenyl)-2-(1H-imidazol-1-yl)-6-(trifluoromethyl) pyrimidine-4-carboxamide]
4 nM | O=C(Nc1cncc(F)c1)c1cc(C(F)(F)F)nc(-n2ccnc2)n1 [compound 167, N-(5-fluoropyridin-3-yl)-2-(1H-imidazol-1-yl)-6-(trifluoromethyl) pyrimidine-4-carboxamide]
20 nM | N#Cc1cncc(NC(=O)c2cc(C(F)(F)F)nc(-n3ccnc3)n2)c1 [compound 169, N-(5-cyanopyridin-3-yl)-2-(1H-imidazol-1-yl)-6-(trifluoromethyl) pyrimidine-4-carboxamide]
8.2 nM | O=C(Nc1ccc(F)cc1)c1cc(C(F)(F)F)nc(-n2ccnc2)n1 [compound 172, N-(4-fluorophenyl)-2-(1H-imidazol-1-yl)-6-(trifluoromethyl) pyrimidine-4-carboxamide]

More lines, now with the values behind:

Compound | IC50
O=C(Nc1cccc(F)c1)c1nc(-n2ccnc2)ncc1N1CCCCC1 [compound 115, N-(3-fluorophenyl)-2-(1H-imidazol-1-yl)-5-(piperidin-1-yl) pyrimidine-4-carboxamide] | 43 nM
O=C(Nc1cccc(F)c1)c1ccnc(-c2ccn[nH]2)n1 [compound 116, N-(3-fluorophenyl)-2-(1H-pyrazol-5-yl)pyrimidine-4-carboxamide] | > 10000 nM
CN(C(=O)c1cc(N2CCCCC2)nc(-n2ccnc2)n1)c1cccc(F)c1 [compound 117, N-(3-fluorophenyl)-2-(1H-imidazol-1-yl)-N-methyl-6-(piperidin-1-yl)pyrimidine-4-carboxamide] | > 10000 nM
O=C(Nc1cccc(F)c1)c1cc(OC2CCC2)nc(-n2ccnc2)n1 [compound 121, 6-cyclobutoxy-N-(3-fluorophenyl)-2-(1H-imidazol-1-yl)pyrimidine-4-carboxamide] | 8 nM
O=C(Nc1cccc(Cl)c1)c1cc(C(F)(F)F)nc(-n2ccnc2)n1 [compound 124, N-(3-chlorophenyl)-2-(1H-imidazol-1-yl)-6-(trifluoromethyl) pyrimidine-4-carboxamide] | 3 nM
O=C(NC1CCCCC1)c1cc(N2CCCCC2)cc(-n2ccnc2)n1 [compound 130, N-cyclohexyl-6-(1H-imidazol-1-yl)-4-(piperidin-1-yl)picolinamide] | 149 nM
O=C(Nc1cc(F)ccc1F)c1cc(N2CCCCC2)nc(-n2ccnc2)n1 [compound 135, N-(2,5-difluorophenyl)-2-(1H-imidazol-1-yl)-6-(piperidin-1-yl)pyrimidine-4-carboxamide] | 36 nM
Cc1ccc(F)cc1NC(=O)c1cc(N2CCCCC2)nc(-n2ccnc2)n1 [compound 137, N-(5-fluoro-2-methylphenyl)-2-(1H-imidazol-1-yl)-6-(piperidin-1-yl)pyrimidine-4-carboxamide] | > 10000 nM
CC1(C)CCC(NC(=O)c2cc(C(F)(F)F)nc(-n3ccnc3)n2)CC1 [compound 138, N-(4,4-dimethylcyclohexyl)-2-(1H-imidazol-1-yl)-6-(trifluoromethyl) pyrimidine-4-carboxamide] | 76 nM
CC(C)(C)NC(=O)c1cc(C(F)(F)F)nc(-n2ccnc2)n1 [compound 141, N-(tert-butyl)-2-(1H-imidazol-1-yl)-6-(trifluoromethyl) pyrimidine-4-carboxamide] | 1030 nM
O=C(NC1CCCCC1)c1cc(N2CCCCC2)nc(-n2ccnc2)n1 [compound 144, N-cyclohexyl-2-(1H-imidazol-1-yl)-6-(piperidin-1-yl)pyrimidine-4-carboxamide] | 46 nM
C[C@H]1CC[C@H](NC(=O)c2cc(C(F)(F)F)nc(-n3ccnc3)n2)CC1 [compound 146, 2-(1H-imidazol-1-yl)-N-((1r,4r)-4-methylcyclohexyl)-6-(trifluoromethyl) pyrimidine-4-carboxamide] | 18 nM
C[C@H]1CC[C@H](NC(=O)c2cc(N3CCCCC3)nc(-n3ccnc3)n2)CC1 [compound 147, 2-(1H-imidazol-1-yl)-N-((1r,4r)-4-methylcyclohexyl)-6-(piperidin-1-yl)pyrimidine-4-carboxamide] | 70 nM
CO[C@H]1CC[C@H](NC(=O)c2nc(-n3ccnc3)ccc2C(F)(F)F)CC1 [compound 151, 6-(1H-imidazol-1-yl)-N-((1r,4r)-4-methoxycyclohexyl)-3-(trifluoromethyl) picolinamide] | 1550 nM
CO[C@H]1CC[C@H](NC(=O)c2ccc(C(F)(F)F)c(-n3ccnc3)n2)CC1 [compound 152, 6-(1H-imidazol-1-yl)-N-((1r,4r)-4-methoxycyclohexyl)-5-(trifluoromethyl) picolinamide] | > 10000 nM
CO[C@H]1CC[C@H](NC(=O)c2ccnc(-n3cnc(C(F)(F)F)c3)n2)CC1 [compound 153, N-((1r,4r)-4-methoxycyclohexyl)-2-(4-(trifluoromethyl)-1H-imidazol-1-yl) pyrimidine-4-carboxamide] | > 10000 nM
